Source: paper PMC3170524 (Physiological research / Academia Scientiarum Bohemoslovaca, 2010)
Positions count from the first letter of the chain named.

Columns and labels:
Assay in all cases: whole-cell patch clamp, peak current dose-response
Type in all cases: cell-based
[1] = biological target: T1, rat P2X4R (Rattus norvegicus, UniProt P51577, C159T)
T1 sequence (P51577 1-388 C159T): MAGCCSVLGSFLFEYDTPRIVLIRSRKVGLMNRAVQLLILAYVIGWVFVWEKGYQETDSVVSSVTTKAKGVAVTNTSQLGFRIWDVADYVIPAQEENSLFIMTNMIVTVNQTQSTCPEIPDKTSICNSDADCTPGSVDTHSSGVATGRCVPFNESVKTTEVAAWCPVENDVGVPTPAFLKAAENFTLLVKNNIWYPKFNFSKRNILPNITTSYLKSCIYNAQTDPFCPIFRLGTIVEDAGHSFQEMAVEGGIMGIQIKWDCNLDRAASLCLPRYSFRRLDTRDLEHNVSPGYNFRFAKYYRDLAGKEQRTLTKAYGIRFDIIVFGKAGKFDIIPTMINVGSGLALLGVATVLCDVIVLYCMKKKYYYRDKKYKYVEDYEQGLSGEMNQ

[2] = biological target: T2, rat P2X4R (Rattus norvegicus, UniProt P51577, C159A)
T2 sequence (P51577 1-388 C159A): T1 sequence (P51577 1-388 C159T) with T159A

[3] = biological target: T3, rat P2X4R (Rattus norvegicus, UniProt P51577, C116T/C165T)
T3 sequence (P51577 1-388 C116T/C165T): T1 sequence (P51577 1-388 C159T) with C116T, T159C, C165T

[4] = biological target: T4, rat P2X4R (Rattus norvegicus, UniProt P51577, C132T/C159T)
T4 sequence (P51577 1-388 C132T/C159T): T1 sequence (P51577 1-388 C159T) with C132T

[5] = biological target: T5, rat P2X4R (Rattus norvegicus, UniProt P51577, C132A)
T5 sequence (P51577 1-388 C132A): T1 sequence (P51577 1-388 C159T) with C132A, T159C

[6] = biological target: T6, rat P2X4R (Rattus norvegicus, UniProt P51577, C116A)
T6 sequence (P51577 1-388 C116A): T1 sequence (P51577 1-388 C159T) with C116A, T159C

[7] = biological target: T7, rat P2X4R (Rattus norvegicus, UniProt P51577, C261T/C270T)
T7 sequence (P51577 1-388 C261T/C270T): T1 sequence (P51577 1-388 C159T) with T159C, C261T, C270T

EC50 [1]: 12 ± 4.1 µM
EC50 [2]: 5.1 ± 1.4 µM
EC50 [3]: 57 ± 19 µM
EC50 [4]: 5.3 ± 0.8 µM
EC50 [5]: 14 ± 4.1 µM
EC50 [6]: 27 ± 6.5 µM
EC50 [7]: 1700 ± 800 nM
SMILES: Nc1ncnc2c1ncn2[C@@H]1O[C@H](COP(=O)(O)OP(=O)(O)OP(=O)(O)O)[C@@H](O)[C@H]1O [ATP]
